From paper doi:10.1101/2025.04.13.648610v1, “Catalytic Mechanism and Differential Alarmone Regulation of a Conserved Stringent Nucleosidase” (biorxiv, 2025)
Positions count from the first letter of the chain named. Values belong to the molecule of their own block, whether it stands above or below them.

Experiments:
Assay type in all cases: binding
PpnN (previously YgdH) [1] = biological target: T1, PpnN (previously YgdH) (Escherichia coli, UniProt P0ADR8); test: X-ray crystal structure […] Å
T1 construct: full length, N-terminal His6 tag, plasmid pCA24N-ppnN, expressed in E. coli BL21(DE3) ppnN::kan; homotetramer; domains PAG1 1-150, catalytic 151-329, PAG2 330-454
T1 sequence (P0ADR8 1-454): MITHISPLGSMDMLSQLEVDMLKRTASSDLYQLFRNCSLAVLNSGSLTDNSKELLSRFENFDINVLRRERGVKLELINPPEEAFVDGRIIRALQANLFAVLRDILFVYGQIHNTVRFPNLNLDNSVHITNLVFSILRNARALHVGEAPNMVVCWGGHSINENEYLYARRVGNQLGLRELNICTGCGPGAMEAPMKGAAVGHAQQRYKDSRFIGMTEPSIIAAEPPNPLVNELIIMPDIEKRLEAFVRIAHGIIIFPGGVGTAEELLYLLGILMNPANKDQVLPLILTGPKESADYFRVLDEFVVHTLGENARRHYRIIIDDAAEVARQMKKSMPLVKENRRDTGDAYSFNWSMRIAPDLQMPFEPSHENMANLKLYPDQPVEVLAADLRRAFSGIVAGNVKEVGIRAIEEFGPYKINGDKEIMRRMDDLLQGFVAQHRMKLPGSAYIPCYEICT

PpnN (previously YgdH) [2] = biological target: T1, PpnN (previously YgdH); test: X-ray crystal structure
PpnN (previously YgdH) [3] = biological target: T2, PpnN (previously YgdH) (Escherichia coli, UniProt P0ADR8, E264A); test: X-ray crystal structure […] Å
T2 construct: full length, N-terminal His6 tag, plasmid pCA24N-ppnN, expressed in E. coli BL21(DE3) ppnN::kan; homotetramer; domains PAG1 1-150, catalytic 151-329, PAG2 330-454
T2 sequence (P0ADR8 1-454 E264A): T1 sequence (P0ADR8 1-454) with E264A

SMILES: Nc1nc2c([C@@H]3O[C@H](COP(=O)(O)O)[C@@H](O)[C@H]3O)c[nH]c2c(=O)[nH]1 [9-deaza-GMP]
- X-ray crystal structure 3.4 Å (PpnN (previously YgdH) [1]; second dimer interface (two sites per tetramer), not the active site, with ppGpp): an elongated electron density was found into which 9dG could be modelled

- X-ray crystal structure (PpnN (previously YgdH) [2]; active sites of the three open monomers, carried over, GMP not added, modelled into density): guanine into the smaller densities
SMILES: Nc1nc2[nH]cnc2c(=O)[nH]1 [guanine]

SMILES: Nc1nc2c(ncn2[C@@H]2O[C@H](COP(=O)(O)OP(=O)(O)O)[C@@H](OP(=O)(O)OP(=O)(O)O)[C@H]2O)c(=O)[nH]1 [ppGpp]
- X-ray crystal structure 3.4 Å (PpnN (previously YgdH) [1]; allosteric alarmone site at dimer interface, four of four sites, with 9-deaza-GMP): All four canonical alarmone binding sites are occupied by ppGpp

SMILES: Nc1nc2c(ncn2[C@@H]2O[C@H](COP(=O)(O)OP(=O)(O)OP(=O)(O)O)[C@@H](OP(=O)(O)OP(=O)(O)O)[C@H]2O)c(=O)[nH]1 [pppGpp]
- X-ray crystal structure (PpnN (previously YgdH) [2]; allosteric alarmone site at dimer interface, three of four sites): pppGpp was bound to three out of four PpnN molecules
- X-ray crystal structure 3.5 Å (PpnN (previously YgdH) [3]; allosteric alarmone site at dimer interface, four of four sites, co-crystallised with GMP): all four alarmone sites are occupied by pppGpp

SMILES: O=P(O)(O)OC[C@H]1OC(O)[C@H](O)[C@@H]1O (stereo partly shown) [ribose 5-phosphate]
- X-ray crystal structure (PpnN (previously YgdH) [2]; active site of the partially open monomer, carried over, GMP not added, modelled into density): ribose-5-phosphate (R5P) into the bilobed density
- X-ray crystal structure 3.5 Å (PpnN (previously YgdH) [3]; active site, four of four, from GMP added to the crystallisation): likely corresponding to the product, R5P
